From patent publication US7238469B2, “Carbon monoxide improves outcomes in tissue and organ transplants and suppresses apoptosis” (priority 2001, dated 2007)
Values joined by “and” are separate entries in the source; they are usually repeats but may differ in a detail not shown here. Equal entries are not always repeated. Structures can show the parent of a compound that is named as a salt. Residues, ends and D or L forms follow the SMILES beside them.

How the values were obtained:
[1] = tested on: islet cell grafts; test: Islet graft survival after induction of HO-1 by CoPP in donors and recipients; type: in vivo, mouse; conditions: 350–400 islets; for Rejection day: individual recipients
Description: Whether induction of HO-1 in donors and recipients would protect islet cell grafts was investigated. The following procedures were utilized to generate the data illustrated in Table 1, below. A mouse model was utilized for the experiments. Donors of islet cells were treated with cobalt protoporphyrin (CoPP) (20 mg/kg) once per day before islet cell isolation. Recipients of islet cell grafts were treated with CoPP (20 mg/kg) once per day on days 1, 3, 5, 7 or with CoPP (10 mg/kg) once per day on days 1, 3, 5, 7, 9, 11, 13, 15, and 17. Treatment with CoPP induces expression of heme oxygenase-1 (HO-1).
Listed under “rejection day” are the days to which islets survived. For instance, “>51×2”, means that islets in 2 recipients were still surviving after 51 days. The mean date of rejection is shown in the fourth column.

[2] = tested on: rat platelets overlaid on mouse 2F–2B endothelial cells; test: Platelet aggregation assay, platelets overlaid on pretreated endothelial cells; type: cell-based; conditions: endothelial cells pretreated with protoporphyrin 50 μM; ADP 2 μM
Description: Mouse 2F–2B endothelial cells were cultured on 0.2% gelatin (Sigma) coated six-well plates in 88% DMEM (Life Technologies), 10% FCS (FCS), 100 U/ml penicillin, and 100 îg/ml streptomycin (Life Technologies). Confluent endothelial cells either were left untreated or were treated with the HO-inducing agent CoPPIX (50 îM; 18 h), the HO inhibitor SnPPIX (50 îM, 18 h), or both CoPPIX (50 îM, 15 h) and SnPPIX (50 îM, 3 h). Platelet-rich plasma was obtained by centrifugation (290-g, 12 min, 19° C.) of normal rat […] in 3.8% sodium citrate. Rat platelets (3–10^8 cells ml) were resuspended in HT buffer (8.9 mM NaHCO3, 0.8 mM KH2PO, 5.6 mM dextrose, 2.8 mM KCl solution, 0.8 mM MgCl2, 129 mM NaCl, 10 mM HEPES). Platelets were overlaid (5 min; 37° C.) on mouse endothelial cells, and platelet aggregation assays were conducted as described before (Kaczmarek et al, J. Biol. Chem. 271:33116, 1996) by using an aggregometer (Chrono-Log, Harestown, Pa.) and ADP (0.5–4 μM) as an agonist.

[3] = tested on: HO-1; test: Western blot of HO-1 expression in cultured endothelial cells; type: cell-based, mouse; conditions: data not shown
Description: Endothelial cells were washed in PBS (pH 7.2), harvested by scraping, and lysed in Laemmli buffer. Electrophoresis was conducted under denaturing conditions with 10% polyacrylamide gels. Proteins were transferred onto a polyvinyldifluoridine membrane (immobilon P; Millipore, Bedford, Mass.) by electroblotting and detected with rabbit polyclonal Abs directed against human HO-1 or HO-2 (StressGen, Victoria, Canada) or é-tubulin (Boehringer Mannheim, Mannheim, Germany). Proteins were visualized by using HRP-conjugated donkey anti-rabbit IgG or goat anti-mouse IgG (Pierce) and the ECL assay (Amersham Life Science, Arlington Heights, Ill.) according to manufacturer's instructions.

[4] = tested on: 2F–2B ECs; type: cell-based, murine
Description: The murine 2F–2B endothelial cell line (ATCC) was transiently transfected as described elsewhere (Soares et al., Nature Med. 4:1073, 1998; Brouard et al, J. Exp. Med. 192:1015, 2000). All experiments were conducted 24–48 h after transfection. é-galactosidase-transfected cells were detected as described elsewhere (Soares et al., Nature Med. 4:1073, 1998; Brouard et al., J. Exp. Med. 192:1015, 2000). Percentage of viable cells was assessed by evaluating the number of é-galactosidase-expressing cells that retained normal morphology as described elsewhere (Soares et al., Nature Med. 4:1073, 1998; Brouard et al., J. Exp. Med. 192:1015, 2000). The number of random fields counted was determined to have a minimum of 200 viable transfected cells per control well. The percentage of viable cells was normalized for each DNA preparation to the number of transfected cells counted in the absence of the apoptosis-inducing agent (100% viability). All experiments were performed at least three times in duplicate. Actinomycin D (Act. D; Sigma) was dissolved in PBS and added to the culture medium (10 îg/ml) 24 h after transfection. SnPPIX (Porphyrin Products) was dissolved (10 îM) in 100 mM NaOH and conserved at −20° C. until used. SNPPIX was added to the culture medium (50 îM) 6 h after transfection. Human recombinant TNF-α (R&D Systems, Minneapolis, Minn.) was dissolved in PBS, 1% BSA, and added to the culture medium (10–100 ng/ml) 24 h after transfection.
Cells were exposed to compressed air or varying concentration of CO (250 and 10,000 ppm), as described elsewhere (Otterbein et al., Nature Med. 6:422, 2000; and Brouard et al., J. Exp. Med. 192:1015, 2000).
BAECs and 2F–2B ECs were transiently transfected. All experiments were carried out 24–48 h after transfection. The percentage of viable cells was assessed by evaluating the number of β-galactosidase-expressing cells that retained normal morphology. The number of random fields counted was determined to have a minimum of 200 viable transfected cells per control well. The percentage of viable cells was normalized for each DNA preparation to the number of transfected cells counted in the absence of the apoptosis-inducing agent (100% viability). All experiments were performed at least three times in duplicate.
Actinomycin D (Act.D; Sigma-Aldrich) was dissolved in PBS and added to the culture medium 24 h after transfection. The Act.D concentration used corresponded to the optimal concentration necessary to sensitize ECs to TNF-α mediated apoptosis, e.g., 10 μg/ml for 2F–2B ECs and 0.1 μg/ml for BAECs. When indicated, EC apoptosis was induced by etoposide (200 μM, 8 h; Calbiochem-Novabiochem) or by serum deprivation (0.1% FCS for 24 h). The iron chelator deferoxamine mesylate (DFO; Sigma-Aldrich) was dissolved in water and added to culture medium (1–100 μM) 1 h before the induction of apoptosis. Hemoglobin (Hb; Sigma-Aldrich) was dissolved (1 mM) in PBS, 10 mM Na2S2O4, dialyzed against PBS (2 h, 4° C., 1:800 dilution), and added to the culture medium (1–100 μM) 6 h after transfection. The guanylcyclase inhibitor 1H(1,2,4)oxadiazolo(4,3)quinoxalin-1 (ODQ; Calbiochem-Novabiochem) was dissolved in DMSO (Sigma-Aldrich) and added to the culture medium (10–100 μM) 6 h after transfection. Iron protoporphyrin ([FePP]/heme), cobalt protoporphyrin (CoPPIX), and tin protoporphyrin (SnPPIX; all from Porphyrin Products, Inc.) were dissolved (10 mM) in 100 mM NaOH and held at −20° C. until use. Metalloporphyrins were added to the culture medium (50 μM) 6 h after transfection. The cGMP analogue 8-bromo-cGMP sodium salt (8-Br-cGMP; Sigma-Aldrich) was dissolved in water and added to the culture medium (10–100 µM) 30 min before the induction of apoptosis. Human recombinant TNF- (R&D Systems) was dissolved in PBS and 1% BSA, and added to the culture medium (10–100 ng/ml) 24 h after transfection.
Cells were exposed to compressed air from a compressed air tank or varying concentrations of CO (250 and 10,000 ppm).

[5] = tested on: βTC3 cells; test: TNF-α mediated apoptosis of β-gal transfected βTC3 cells (percentage of viable cells); type: cell-based, murine; conditions: for inhibition of TNF-α mediated apoptosis: TNF-α 24 hours, inhibitor added two hours before TNF-α (Z-DEVD-FMK 10 μM, IETD-CHO 1 μM)
Description: The murine insulinoma cell line βTC3 (DSMZ, Braunschweig, Germany) was cultured in Dulbecco's Modified Eagle's Medium (DMEM) (Life Technologies, Grand Island, N.Y., USA) supplemented with 2 mM L-glutamine, 100 U/ml penicillin G, 100 U/ml streptomycin and 10% Fetal Calf Serum (FCS) (Life Technologies) and incubated in humidified 5% CO2/95% air at 37° C. This murine β-cell line, derived from transgenic mice carrying a hybrid insulin-promoter simian virus 40 tumor antigen, is known to maintain the features of differentiated β-cells for about 50 passages in culture. […] Compared to other frequently used transformed β-cell lines such as RIN-m5F and HIT, levels of secreted insulin are closer to normal β-cells in the βTC3 cell line. Thus, these cells are useful for studying β-cell regulation and gene expression (D'Ambra et al., Endocrinology 726:2815–22, 1990).
βTC3 were seeded at 3×10^5 cells in 16 mm wells and transfected 15 to 20 hours later using Lipofectamine plus™ reagents (Life Technologies) according to the manufacturer's instructions. Total DNA was maintained constant using empty pcDNA3 vector. The percentage of viable cells was assessed by normalizing the percentage of viable cells of each DNA preparation to the number of control-transfected cells without the apoptotic stimulus (100% viability) (Soares et al., Nature Med. 4:1073–1077, 1998; Sato et al., J. Immunol. 166:4185–4194, 2001).
Murine recombinant TNF-α (R&D Systems) was dissolved in PBS with 1% bovine serum albumin and added to the culture medium (17.5 ng/ml=500 U) 24 hours after transfection. The caspase-3 inhibitor Z-DEVD-FMK and the caspase-8 inhibitor IETD-CHO (Calbiochem, San Diego, Calif.) were dissolved in dimethyl sulphoxide (DMSO, Sigma) and added to the culture medium (10 μM and 1 μM respectively) two hours before treatment with TNF-α. Tin protoporphyrin (SnPPIX) (Porphyrin Products, Logan, Utah) was dissolved (10 mM) in 100 mM NaOH and added 6 hours after transfection to the culture medium (50 μM). The guanylyl cyclase inhibitor 1H[1,2,4]oxadiazolo[4,3-α]quinoxalin-1 (ODQ; Calbiochem) was dissolved in DMSO and added to the culture medium (100 μM) 6 hours after transfection. The cGMP analogue 8-bromoguanosine-3′-5′-cyclic-monophosphate (8-Br-cGMP) (Sigma) was dissolved in water and added to the culture medium (10 μM) 30 minutes before induction of apoptosis. The protein kinase G inhibitor KT5823 (Calbiochem) was dissolved in DMSO and added to the culture medium (1.6 μM) 6 hours after transfection.
Cells and islets were exposed to 1% carbon monoxide in compressed air balanced with 5% CO2, as described elsewhere (see, e.g., Otterbein et al., Nature Med. 6:422–428, 2000). Islets were incubated in RPMI medium pre-saturated with carbon monoxide (4° C. overnight, 1% CO, 5% CO2) for two hours at 37° C. while treatment with 1% CO, 5% CO2 was continued.

`C=CC1=C(C)c2cc3[n-]c(cc4nc(cc5[n-]c(cc1n2)c(C)c5CCC(=O)[O-])C(CCC(=O)[O-])=C4C)c(C)c3C=C.[Co+2].[H+].[H+]` [CoPP, cobalt protoporphyrin] was tested, and the “Rejection day Mean ± SD” value ([1]; CoPP 10 mg/kg × 10) was 40.5 ± 12.12 days, the Rejection/Total ([1]; CoPP 10 mg/kg × 10) was 2/4 and the Rejection day ([1]; CoPP 10 mg/kg × 10) was > 51 days. For the same compound, the “Rejection day Mean ± SD” value ([1]; CoPP 20 mg/kg × 5) was 44.85 ± 17.81 days, the Rejection/Total ([1]; CoPP 20 mg/kg × 5) was 4/7 and the Rejection day ([1]; CoPP 20 mg/kg × 5) was >58 × 2, day and >67 × 1 day. For the same compound, the “platelet aggregation on stimulation by ADP” value [2] was “platelet aggregation was significantly inhibited”, the “expression of HO-1 in cultured endothelial cells” value [3] was “up-regulated the expression of HO-1” and the “effect of protoporphyrin on the antiapoptotic effect of HO-1” value ([4]; HO-1 transfected ECs, protoporphyrin 50 μM) was “did not suppress the antiapoptotic effect of HO-1 or that of bcl-2”.
For `CC(=O)N(O)CCCCCNC(=O)CCC(=O)N(O)CCCCCNC(=O)CCC(=O)N(O)CCCCCN` [DFO, deferoxamine mesylate], the “effect on EC apoptosis when HO-1 activity was inhibited by SnPPIX or the action of CO suppressed by Hb” value ([4]; DFO) was “still able to prevent EC apoptosis”, the “effect on EC apoptosis under inhibition of HO activity by SnPPIX” value ([4]; DFO 100 μM alone) was “suppressed EC apoptosis, but to a lesser extent than HO-1” and the “effect on EC apoptosis induced by TNF-α plus Act.D” value ([4]; DFO 1–100 μM) was “suppressed”.
`CC[C@H](C)[C@H](NC(C)=O)C(=O)N[C@@H](CCC(=O)O)C(=O)N[C@H](C(=O)N[C@H](C=O)CC(=O)O)[C@@H](C)O` [IETD-CHO] (Ac-IETD-aldehyde) was tested, and the “inhibition of TNF-α mediated apoptosis” value [5] was 96%.
With `COC(=O)[C@@]1(OC)C[C@H]2O[C@]1(C)n1c3ccccc3c3c4c(c5c6ccccc6n2c5c31)C(=O)N(C)C4` [KT5823] the “effect on the anti-apoptotic effect of exogenous CO” value ([5]; TNF-α, 1% CO, ODQ 100 μM, KT5823 1.6 μM) was “suppressed the anti-apoptotic effect of exogenous carbon monoxide”.
`COC(=O)CC[C@H](NC(=O)[C@H](CC(=O)OC)NC(=O)OCc1ccccc1)C(=O)N[C@H](C(=O)N[C@@H](CC(=O)OC)C(=O)CF)C(C)C` [Z-DEVD-FMK] was tested, and the “inhibition of TNF-α mediated apoptosis” value [5] was 53%.
In the case of `C[S+]([O-])c1ccc(-c2nc(-c3ccncc3)c(-c3ccc(F)cc3)[nH]2)cc1` (stereo not shown) [SB203580], the “effect on the antiapoptotic action of HO-1” value ([4]; SB203580 10–20 μM, dose dependent) is reported as “antiapoptotic action of HO-1 is suppressed”.
